Measured values taken from article PMC7673680, “Small-molecule sequestration of amyloid-β as a drug discovery strategy for Alzheimer’s disease” (Science Advances, 2020).

Molecular target: T1, amyloid-β 42 (Aβ42), monomeric (Homo sapiens, UniProt P05067)
T1 construct: gene APP; Aβ42, monomeric 42-residue peptide, N-terminally biotinylated for BLI
Experiment: biolayer interferometry (kon/koff global fit); supported by 2D HN-BESTCON NMR and dot-blot sequestration fit (Kd […])
Assay type: binding

T1 sequence (P05067 672-713): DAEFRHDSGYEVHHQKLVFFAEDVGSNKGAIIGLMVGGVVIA

Kd: 6 µM
SMILES: O=[N+]([O-])c1ccc(Nc2ccccc2-c2ccccc2)c2nonc12 [10074-G5, biphenyl-2-yl-(7-nitro-benzo[1,2,5]oxadiazol-4-yl)-amine]
